Results published in patent US6608036B1, “Oligonucleotide N3′→P5′ thiophosphoramidates: their synthesis and administration to treat neoplasms” (Geron Corporation, priority 1999, dated 2003).
Like-named read-outs stand apart in the source and are kept apart here.

Legend:
[1] = test system: complementary natural RNA oligomer; experiment: Thermal dissociation (Tm) of duplexes with complementary RNA strand; format: binding; conditions: 150 mM NaCl; for Tm, melting temperature of the duplexes: 10 mM sodium phosphate buffer pH 7.4, ±0.5° C.
Protocol: ^31P NMR spectra were obtained on a Varian 400 Mhz spectrometer. ^31P NMR spectra were referenced against 85% aqueous phosphoric acid. Anion exchange HPLC was performed using a Dionex DX 500 Chromatography System, with a Pharmacia Bitotech Mono Q HR 5/5 or 10/16 ion exchange columns. Mass spectral analysis was performed by Mass Consortium, San Diego, Calif. MALDI-TOF analysis of oligonucleotides was obtained using a PerSpective Biosystems Voyager Elite mass spectrometer with delayed extraction. Thermal dissociation experiments were conducted on a Cary Bio 100 UV-Vis spectrometer.
Duplex formation properties of oligonucleotide phosphoramidates with complementary RNA strand were evaluated using thermal dissociation experiments. […] Also, the increase in the thermal stability of duplexes was similar to that observed for the phosphoramidate oligomers.

[2] = test system: telomerase (affinity-purified extract from 293 cells over-expressing hTERT); experiment: Bio-Tel FlashPlate telomerase activity assay; format: biochemical, human; conditions: telomerase inhibition
HME50-5E cells = experiment: Reduction of telomere length in tumor cells (TRF analysis); format: cell-based, human; conditions: for telomere length by TRF analysis: about 0.5 μM, measured at 10, 20, 40 and 80 days (FIG. 7)
Protocol: Colonies of human breast epithelial cells (spontaneously immortalized) were prepared using standard methods and materials. Colonies were prepared by seeding 15-centimeter dishes with about 10^6 cells in each dish. The dishes were incubated to allow the cell colonies to grow to about 80% confluence, at which time each of the colonies were divided into two groups. One group was exposed to a subacute dose of thiophosphoramidate polynucleotide SEQ ID NO:2 at a predetermined concentration (e.g., between about 100 nM and about 20 μM) for a period of about 4-8 hours after plating following the split. The second group of cells were similarly exposed to mismatch control oligonucleotide SEQ ID NO:4.
Each group of cells is then allowed to continue to divide, and the groups are split evenly again (near confluence). The same number of cells were seeded for continued growth. The test thiophosphoramidate oligonucleotide or control oligonucleotide was added every fourth day to the samples at the same concentration delivered initially. In one experiment the cells were additionally treated with FuGENE6™ (Boehringer-Mannhiem) following manufacturers instructions. FuGENE6™ enhances oligonucleotide uptake by the cells.
Telomere length was determined by digesting the DNA of the cell samples using restriction enzymes specific for sequences other than the repetitive T2AG3 sequence of human telomeres (TRF analysis). The digested DNA was separated by size using standard techniques of gel electrophoresis to determine the lengths of the telomeric repeats, which appear, after probing with a telomere DNA probe, on the gel as a smear of high-molecular weight DNA (approximately 2 Kb-15 Kb). FIGS. 4 and 5 show examples of such experiments.
The HME50-5E cells were incubated with one of the thiophosphoramidate polynucleotides shown in SEQ ID NOs:2 and 8. The mismatch oligonucleotide SEQ ID NO:4 was used as a control. All polynucleotides were used at a concentration of about 0.5 μM using the protocol described above. The length of the telomeres were measured at 10, 20, 40 and 80 days. […] In addition to the HME50-5E cells described above, this assay can be performed with any telomerase-positive cell line, such as HeLa cells or HEK-293 cells.

[3] = 40% aqueous acetic acid at room temperature
[4] = phosphoramidate backbone, read-out: IC50(nM) phosphoramidate
[5] = thiophosphoramidate backbone, read-out: IC50(nM) thiophosphoramidate

## 5′-GTTAGGGTTAG-3′ (listed as DNA, chemistry not fully specified) [SEQ ID NO:1 phosphoramidate]
[1]; 10 mM sodium phosphate buffer pH 7.4, listed as SEQ ID NO:1 np
  −Tm, increase of Tm relative to the natural phosphodiester counterpart: 27.9 °C
[1]; listed as SEQ ID NO:1 np
  Tm, melting temperature of the duplexes: 72.1 °C
[2]; [4]
  IC50: 1.9 nM

## 5′-GTTAGGGTTAG-3′ (listed as DNA, chemistry not fully specified) [SEQ ID NO:1 thiophosphoramidate]
[1]; 10 mM sodium phosphate buffer pH 7.4, listed as SEQ ID NO:1 nps
  −Tm, increase of Tm relative to the natural phosphodiester counterpart: 27.3 °C
[1]; listed as SEQ ID NO:1 nps
  Tm, melting temperature of the duplexes: 71.5 °C
[2]; [5]
  IC50: 0.89 nM

## 5′-GTTGAGTGTAG-3′ (listed as DNA, chemistry not fully specified) [SEQ ID NO:3 phosphoramidate, N3′→P5′ phosphoramidate mismatch control, reference compound]
[2]; [4]
  IC50: 1000 nM

## 5′-GTTGAGTGTAG-3′ (listed as DNA, chemistry not fully specified) [SEQ ID NO:3 thiophosphoramidate]
[2]; [5]
  IC50: 177 nM

## 5′-TAGGGTTAGACAA-3′ (thiophosphoramidate backbone, chemistry not fully specified) [SEQ ID NO:2 thiophosphoramidate]
[1]; 10 mM sodium phosphate buffer pH 7.4
  −Tm, increase of Tm relative to the natural phosphodiester counterpart: 24.8 °C
[1]
  Tm, melting temperature of the duplexes: 70.0 °C
HME50-5E cells; HME50-5E cells coincubated with FuGENE6, even at lowest concentration tested (100 nM) (FIG. 4)
  telomere size compared to control cells: telomere size was reduced compared to the control cells
HME50-5E cells; HME50-5E cells
  telomere length by TRF analysis: effective in reducing telomere length
HME50-5E cells; HME50-5E cells, absence of FuGENE6, 1-20 μM (FIG. 4)
  telomere length: large decrease in telomere length
HME50-5E cells; treatment of HME50-5E human breast epithelial cells
  telomere length (inhibition of telomerase activity): decrease in telomere length
[2]; [5]
  IC50: 0.41 nM

## 5′-TAGGGTTAGACAA-3′ [SEQ ID NO:2 phosphoramidate]
[3]; listed as SEQ ID NO:2 np
  Acid Stability, half-live of oligonucleotide: 0.5 h
[1]; 10 mM sodium phosphate buffer pH 7.4, listed as SEQ ID NO:2 np
  −Tm, increase of Tm relative to the natural phosphodiester counterpart: 26.5 °C
[1]; listed as SEQ ID NO:2 np
  Tm, melting temperature of the duplexes: 71.7 °C

## 5′-TAGGGTTAGACAA-3′ [SEQ ID NO:2 thiophosphoramidate] (thiophosphoramidate backbone, chemistry not fully specified)
[3]; listed as SEQ ID NO:2 nps
  Acid Stability, half-live of oligonucleotide: 6 h

## 5′-TAGGTGTAAGCAA-3′ (listed as DNA, chemistry not fully specified) [SEQ ID NO:4 phosphoramidate, N3′→P5′ phosphoramidate mismatch control, reference compound]
[2]; [4]
  IC50: 1000 nM

## 5′-TAGGTGTAAGCAA-3′ (listed as DNA, chemistry not fully specified) [SEQ ID NO:4 thiophosphoramidate]
[2]; [5]
  IC50: 79.3 nM

## CAGTTAGGGTTAG (listed as DNA, chemistry not fully specified) [SEQ ID NO:8 thiophosphoramidate]
HME50-5E cells; HME50-5E cells
  telomere length by TRF analysis: effective in reducing telomere length
HME50-5E cells; even at lowest concentration tested (1 nM) (FIG. 5)
  telomere size compared to control cells: telomere size was reduced compared to the control cells

## GTTAGGGTTAG (unmodified DNA) [SEQ ID NO:1 po, natural phosphodiester oligomer]
[1]
  Tm, melting temperature of the duplexes: 44.2 °C

## TAGGGTTAGACAA (DNA, all phosphodiester, methylation of C not given here) [SEQ ID NO:2 po, natural phosphodiester oligomer]
[1]
  Tm, melting temperature of the duplexes: 45.2 °C
